One test addresses Human α7 nAChR (UniProt P36544). Briefly: Radioligand binding ([3H]MLA) at α7 nAChR.
The target of the next test is T1, Human α4β2 nAChR (Homo sapiens, UniProt P17787+P43681).
T1 construct: expressed in transfected cells; host or cells: SH-EP1 clonal cells expressing human α4β2
Briefly: Radioligand binding ([3H]nicotine) at α4β2 nAChR, membranes from SH-EP1/human α4β2 clonal cells. On the procedure: Preparation of Membranes from SH-EP1/Human α4β2 Clonal Cells:
Cell pellets from 40 150 mm culture dishes were pooled, and homogenized by Polytron (Kinematica GmbH, Switzerland) in 20 milliliters of ice-cold preparative buffer. The homogenate was centrifuged at 48,000 g for 20 minutes at 4° C. The resulting pellet was re-suspended in 20 mL of ice-cold preparative buffer and stored at −20° C.
On the day of the assay, the frozen membranes were thawed and spun at 48,000×g for 20 min. The supernatant was decanted and discarded. The pellet was resuspended in Dulbecco's phosphate buffered saline (PBS, Life Technologies) pH 7.4 and homogenized with the Polytron for 6 seconds. Protein concentrations were determined using a Pierce BCA Protein Assay Kit, with bovine serum albumin as the standard (Pierce Chemical Company, Rockford, Ill.).
Incubation was terminated by rapid filtration on a multi-manifold tissue harvester (Brandel, Gaithersburg, Md.) using GF/B filters presoaked in 0.33% polyethyleneimine (w/v) to reduce non-specific binding. Tissue was rinsed 3 times in PBS, pH 7.4. Scintillation fluid was added to filters containing the washed tissue and allowed to equilibrate. Filters were then counted to determine radioactivity bound to the membranes by liquid scintillation counting (2200CA Tri-Carb LSC, Packard Instruments, 50% efficiency or Wallac Trilux 1450 MicroBeta, 40% efficiency, Perkin Elmer).
Data were expressed as disintegrations per minute (DPMs). Within each assay, each point had 2-3 replicates.

The mark [1] stands for this setting: competition with 5 nM [3H]MLA; Ki by Cheng-Prusoff; read-out: Human α7 Ki.
[2] abbreviates: read-out: Human α7 Ki; competition with 5 nM [3H]MLA; Ki by Cheng-Prusoff.

The structures appear in SMILES notation. Where two headings read alike, the source gives them in different places.

These results are taken from patent publication US20150031675A1, “DIAZABICYCLO[3.3.1]NONANES, METHODS OF SYNTHESIS, AND USES THEREOF” (Targacept, Inc., priority 2012, published 2015).

T1 sequence (P43681 29-627 limits assumed): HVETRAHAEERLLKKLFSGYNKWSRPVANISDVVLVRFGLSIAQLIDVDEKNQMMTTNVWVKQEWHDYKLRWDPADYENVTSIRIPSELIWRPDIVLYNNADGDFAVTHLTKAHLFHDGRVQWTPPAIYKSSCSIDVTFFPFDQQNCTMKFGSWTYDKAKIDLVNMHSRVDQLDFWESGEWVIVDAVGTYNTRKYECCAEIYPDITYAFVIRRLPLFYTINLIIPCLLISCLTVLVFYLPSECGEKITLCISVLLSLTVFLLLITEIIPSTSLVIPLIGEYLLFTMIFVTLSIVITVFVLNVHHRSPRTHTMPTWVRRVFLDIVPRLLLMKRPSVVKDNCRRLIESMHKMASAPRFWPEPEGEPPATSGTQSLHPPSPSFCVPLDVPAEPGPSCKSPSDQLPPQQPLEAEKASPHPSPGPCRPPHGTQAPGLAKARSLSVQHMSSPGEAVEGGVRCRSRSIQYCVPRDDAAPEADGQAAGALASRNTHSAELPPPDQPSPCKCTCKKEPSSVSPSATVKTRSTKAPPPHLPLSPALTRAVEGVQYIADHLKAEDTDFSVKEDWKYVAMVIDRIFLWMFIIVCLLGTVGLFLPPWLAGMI
T1 sequence (P17787 26-502): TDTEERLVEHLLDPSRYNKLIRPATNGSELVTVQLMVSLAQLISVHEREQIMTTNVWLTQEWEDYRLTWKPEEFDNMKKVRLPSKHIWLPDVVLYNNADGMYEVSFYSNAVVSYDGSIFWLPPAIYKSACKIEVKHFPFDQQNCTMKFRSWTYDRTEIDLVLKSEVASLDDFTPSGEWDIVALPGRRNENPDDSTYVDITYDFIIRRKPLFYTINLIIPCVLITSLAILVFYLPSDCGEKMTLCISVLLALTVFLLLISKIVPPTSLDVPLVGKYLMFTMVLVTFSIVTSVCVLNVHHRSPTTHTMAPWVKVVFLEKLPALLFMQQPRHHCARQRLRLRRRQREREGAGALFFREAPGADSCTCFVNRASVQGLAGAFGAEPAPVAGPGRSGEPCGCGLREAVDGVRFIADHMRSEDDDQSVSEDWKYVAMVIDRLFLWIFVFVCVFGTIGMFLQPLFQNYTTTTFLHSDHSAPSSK

For orientation: Ki means a measure of affinity in units of concentration, obtained from inhibition or displacement. For `CN1CCC(N2CC3CC(CN(c4cccnc4)C3)C2)C1` (centres unmarked), the results for the Ki on Human α7 nAChR (setting [1]) and on Human α4β2 nAChR were 790 nM and 11 nM, respectively.

Regarding `c1cncc(N2CC3CC(C2)CN(C2CCNCC2)C3)c1`, the figures for the Ki on Human α7 nAChR (setting [1]) and at Human α4β2 nAChR were 790 nM and 14 nM, respectively.

Turning to `c1cncc(N2CC3CC(C2)CN(C2CCCNCC2)C3)c1` (centres unmarked), the results for the Ki at Human α7 nAChR (setting [2]) and at Human α4β2 nAChR (read-out: Human α4β2 Ki) were 20 nM and 0.45 nM, respectively.

On to `c1cncc(N2CC3CC(C2)CN(C2CN4CCC2CC4)C3)c1` (centres unmarked), for which the Ki was 510 nM on Human α7 nAChR (setting [1]) and 42 nM on Human α4β2 nAChR.

As for `c1cncc(N2CC3CC(C2)CN(C2CCCNC2)C3)c1` (centres unmarked), the Ki on Human α7 nAChR (setting [2]) was found to be 62 nM; on Human α4β2 nAChR (read-out: Human α4β2 Ki) it was 0.79 nM.

As to `c1cncc(N2CC3CC(C2)CN(C2CCNC2)C3)c1` (centres unmarked), the results for the Ki at Human α7 nAChR (setting [2]) and at Human α4β2 nAChR (read-out: Human α4β2 Ki) were 24 nM and 0.16 nM, respectively.

Take `c1cncc(N2CC3CC(C2)CN(C2CNC2)C3)c1`: the Ki on Human α7 nAChR (setting [1]) was 550 nM; on Human α4β2 nAChR, 5.8 nM.
